According to the supplement of paper PMC10307832:

Assays:
Assay in all cases: relative viability (nuclei count vs DMSO), 5 days (fraction); higher = more cells survive
[1] = compound: N#CC1(c2ccc(NC(=O)c3cccnc3NCc3ccncc3)cc2)CCCC1 [Apatinib] + CS(=O)(=O)N1CCN(Cc2cc3nc(-c4cccc5[nH]ncc45)nc(N4CCOCC4)c3s2)CC1 [Pictilisib] (partner 1 µM)
How it was run: (§1)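 One day after seeding in 1536-well plates, lung cancer cell lines were dosed by pin tool. Dosing was either single-drug or a fixed anchor-drug dose plus five library-drug doses (not always all listed) in √10 steps. After 5 days, nuclei were stained in one fix-and-stain step and counted on 4× images, and relative viability is the nuclei count of treated wells over that of vehicle wells, given as the median of duplicate plates.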

[2] = compound: CN(C)C(=N)NC(=N)N [Metformin] + Nc1nc2[nH]cc(CCc3ccc(C(=O)N[C@@H](CCC(=O)O)C(=O)O)cc3)c2c(=O)[nH]1 [Pemetrexed] (partner 0.2 µM)
How it was run: as §1

[3] = compound: N#CC1(c2ccc(NC(=O)c3cccnc3NCc3ccncc3)cc2)CCCC1 [Apatinib] + O=C(CCCCCCC(=O)Nc1ccccc1)NO [Vorinostat] (partner 1 µM)
How it was run: as §1

[4] = compound: CN(C)C(=N)NC(=N)N [Metformin] + O=C(c1cc(Cc2n[nH]c(=O)c3ccccc23)ccc1F)N1CCN(C(=O)C2CC2)CC1 [Olaparib] (partner 8 µM)
How it was run: as §1

Cell Line	relative viability ([1]; first compound 0.08 µM)	relative viability ([1]; first compound 0.253 µM)	relative viability ([1]; first compound 0.8 µM)	relative viability ([1]; first compound 2.53 µM)	relative viability ([1]; first compound 8 µM)	relative viability ([2]; first compound 10 µM)	relative viability ([2]; first compound 31.62 µM)	relative viability ([2]; first compound 100 µM)	relative viability ([2]; first compound 316.23 µM)	relative viability ([2]; first compound 1000 µM)	relative viability ([3]; first compound 0.08 µM)	relative viability ([3]; first compound 0.253 µM)	relative viability ([3]; first compound 0.8 µM)	relative viability ([3]; first compound 2.53 µM)	relative viability ([3]; first compound 8 µM)	relative viability ([4]; first compound 10 µM)	relative viability ([4]; first compound 31.62 µM)	relative viability ([4]; first compound 100 µM)	relative viability ([4]; first compound 316.23 µM)	relative viability ([4]; first compound 1000 µM)
LXF-289	0.838	0.828	0.76	0.714	0.72	0.74	0.83	0.756	0.806	0.784	0.813	0.746	0.765	0.637	0.671	0.929	0.922	0.829	0.917	0.93
NCI-H650	0.963	0.878	0.847	0.678	0.654	0.846	0.993	0.878	0.941	1.1	0.494	0.422	0.391	0.264	0.42	0.315	0.296	0.396	0.316	0.368
NCI-H1975	0.305	0.335	0.304	0.28	0.322	0.277	0.296	0.317	0.269	0.289	0.761	0.696	0.641	0.634	0.557	0.653	0.931	0.874	0.849	0.955
ChaGo-K-1		0.999	0.721	0.638	0.725	0.259	0.277	0.259	0.257	0.256	0.838	0.843	0.789	0.656	0.565	0.341	0.343	0.319	0.26	0.33
COR-L 105	0.512	0.471	0.33	0.438	0.354	1.12	1.26	1.33	1.29	1.1	1.09	0.795	0.872	0.782	0.805	0.804	0.625	0.645	0.725	0.694
A-427	0.925	0.679	0.715	0.611	0.592	0.972	1.05	1	1	0.878	0.861	0.852	0.855	0.866	0.853	0.645	0.773	0.708	0.625	0.447
NCI-H2087	0.864	0.815	0.826	0.749	0.779	0.622	0.702	0.615	0.536	0.614	0.768	0.591	0.747	0.579	0.688	0.316	0.453	0.414	0.426	0.473
NCI-H358	0.282	0.241	0.283	0.298	0.301	0.156	0.182	0.146	0.162	0.179	0.762	0.866	0.616	0.618	0.578	0.394	0.537	0.569	0.412	0.424
